The test has as its system croton oil-induced inflammation in the mouse's ear. Put plainly: Topical anti-inflammatory activity after immediate application in croton oil-induced inflammation in the mouse's ear. Format: in vivo, mouse (female CF1). To be noted: 4 h, Topical Dose 4 mg/ear, immediate application with 2% croton oil, ears taken four hours after application, read-out: % Inhibition of Ear Edema. On the procedure: Testing of the anti-inflammatory effects of the compounds of Formula I were performed utilizing a modification of the experimental techniques described by Tonelli, G., Thibault, L. and Ringler, L., "A Bioassay for the Concomitant Assessment of the Anti-phlogistic and Thymolytic Activities of Topically Applied Corticoids": Endocrinology 77, 625 (1965) and Roszkowski, A. P., Rooks, W. H. II, Tomolonis, A. J., and Miller, L. M., "Anti-inflammatory and Analgetic Properties of the d-2-(6-Methoxy-2'-Naphthyl)Propionic Acid (Naproxen)". J. Pharm. Exp. Ther., 179, 114 (1971).
The topical anti-inflammatory activity of the test compounds is measured by immediate application at the time of induction of croton oil-induced inflammation in the mouse's ear.
0.1 ml. of a solution containing 2% croton oil (Amend Drug and Chemical Co., Irvington, N.J.), 73% diethyl ether, U.S.P. (Corco Chemical Corp., Fairless Hills, Pa.), 20% pyridine (J. T. Baker Chemical Co., Phillipsburg, Pa.) and 5% distilled water was applied to the left ear of female CF1 mice, in groups of six, during light ether anesthesia.
Four hours after application of either the irritant solution or the irritant solution containing the test compound, the mice were sacrificed by cervical dislocation, both ears were amputated and circular sections, one from each ear, were removed with a No. 4 cork borer (7 mm, i.d.). Each ear section was then weighed. The increase in weight due to edema formation caused by the croton oil in the treated ear and the reduction of that edema caused by drug treatment was determined by subtracting the weight of the untreated right ear section from that of the treated left ear section.
The anti-inflammatory effects of the test compounds expressed as percent inhibition are calculated by: [formula]
TOPICAL ANTI-INFLAMMATORY ACTIVITY AFTER
IMMEDIATE APPLICATION IN CROTON OIL-INDUCED
INFLAMMATION IN THE MOUSE'S EAR
With `Clc1ccc(N=Cc2c(Cl)cccc2Cl)cc1` [N-(2,6-dichlorobenzylidene)-p-chloroaniline], the inhibition in vivo at 4 mg/ear was 9.1%.

In the case of `Clc1cc(C=Nc2ccc(Br)cc2)ccc1C1CCCCC1` [N-(3-chloro-4-cyclohexylbenzylidene)-p-bromoaniline], the inhibition in vivo at 4 mg/ear stood at 1.5%.

Consider `Fc1ccc(N=Cc2ccc(C3CCCCC3)c(Cl)c2)cc1` [N-(3-chloro-4-cyclohexylbenzylidene)-p-fluoroaniline], for which the inhibition in vivo at 4 mg/ear amounted to 6.8%.

For the compound `Fc1ccc(N=Cc2cccc(Cl)c2)cc1` [N-(m-chlorobenzylidene)-p-fluoroaniline], the inhibition in vivo at 4 mg/ear worked out at 9.1%.

With `Cc1c(Cl)cccc1N=Cc1ccccc1Cl` [N-(o-chlorobenzylidene)-3-chloro-2-methylaniline], the inhibition in vivo at 4 mg/ear worked out at 44.3%.

For `Clc1cccc(N=Cc2ccccc2Cl)c1` [N-(o-chlorobenzylidene)-m-chloroaniline], the inhibition in vivo at 4 mg/ear came out at 4%.

Regarding `Fc1ccc(N=Cc2ccccc2Cl)cc1` [N-(o-chlorobenzylidene)-p-fluoroaniline], the inhibition in vivo at 4 mg/ear is 24.3%.

Regarding `Cc1cccc(N=Cc2ccccc2O)c1C` [N-(o-hydroxybenzylidene)-2,3-dimethylaniline], the inhibition in vivo at 4 mg/ear stood at 27.8%.

In the case of `Cc1c(Cl)cccc1N=Cc1ccccc1O` [N-(o-hydroxybenzylidene)-2-methyl-3-chloroaniline], the inhibition in vivo at 4 mg/ear amounted to 38.5%.

Consider `Oc1ccccc1C=Nc1ccccc1` [N-(o-hydroxybenzylidene)-aniline, N-(o-hydroxybenzylidene)aniline], for which the inhibition in vivo at 4 mg/ear came out at 5.3%.

As to `Oc1ccccc1C=Nc1cccc(C(F)(F)F)c1` [N-(o-hydroxybenzylidene)-m-(α,α,α-trifluorotoluidine)], the inhibition in vivo at 4 mg/ear worked out at 21.6%.

As to `Oc1ccccc1C=Nc1ccc(F)cc1` [N-(o-hydroxybenzylidene)-p-fluoroaniline], the inhibition in vivo at 4 mg/ear amounted to 21.5%.

Consider `Fc1ccc(N=Cc2ccc(Br)cc2)c(C(F)(F)F)c1` [N-(p-bromobenzylidene)-4-fluoro-2-trifluoromethylaniline], for which the inhibition in vivo at 4 mg/ear was 18.8%.

On to `Cc1c(Cl)cccc1N=Cc1ccc(Cl)cc1` [N-(p-chlorobenzylidene)-2-methyl-3-chloroaniline], for which the inhibition in vivo at 4 mg/ear turned out to be 46.8%.

In the case of `Cc1cc(Cl)ccc1N=Cc1ccc(Cl)cc1` [N-(p-chlorobenzylidene)-2-methyl-4-chloroaniline], the inhibition in vivo at 4 mg/ear turned out to be 23%.

For the compound `Fc1ccc(N=Cc2ccc(Cl)cc2)c(C(F)(F)F)c1` [N-(p-chlorobenzylidene)-4-fluoro-2-trifluoromethylaniline], the inhibition in vivo at 4 mg/ear turned out to be 36.5%.

Consider `Clc1ccc(C=Nc2cccc(Cl)c2)cc1` [N-(p-chlorobenzylidene)-m-chloroaniline], for which the inhibition in vivo at 4 mg/ear is 23.6%.

For `Fc1cccc(N=Cc2ccc(Cl)cc2)c1` [N-(p-chlorobenzylidene)-m-fluoroaniline], the inhibition in vivo at 4 mg/ear was 10.8%.

As to `Fc1ccc(N=Cc2ccc(Cl)cc2)cc1` [N-(p-chlorobenzylidene)-p-fluoroaniline], the inhibition in vivo at 4 mg/ear stood at 45.2%.

In the case of `Cc1ccc(N=Cc2ccc(Cl)cc2)cc1` [N-(p-chlorobenzylidene)-p-methylaniline], the inhibition in vivo at 4 mg/ear is 16.2%.

Consider `Fc1ccc(C=Nc2ccccc2C(F)(F)F)cc1` [N-(p-fluorobenzylidene)-o-trifluoromethylaniline], for which the inhibition in vivo at 4 mg/ear is 21.3%.

With `Clc1cc(Br)ccc1N=Cc1ccc(-c2ccccc2)cc1` [N-(p-phenylbenzylidene)-2-chloro-4-bromoaniline], the inhibition in vivo at 4 mg/ear is 33.9%.

With `C(=Nc1ccccc1)c1ccc(-c2ccccc2)cc1` [N-(p-phenylbenzylidene)-aniline, N-(p-phenylbenzylidene)aniline], the inhibition in vivo at 4 mg/ear was 24.7%.

For `Brc1ccc(N=Cc2ccc(-c3ccccc3)cc2)cc1` [N-(p-phenylbenzylidene)-p-bromoaniline], the inhibition in vivo at 4 mg/ear turned out to be 25.5%.

Turning to `Cc1ccc(N=Cc2ccc(-c3ccccc3)cc2)cc1` [N-(p-phenylbenzylidene)-p-methylaniline], the inhibition in vivo at 4 mg/ear is 27%.

`Cc1cc(F)ccc1N=Cc1ccccc1` [N-benzylidene-2-methyl-4-fluoroaniline]: the inhibition in vivo at 4 mg/ear came to 26.8%.

For `Cc1ccccc1N=Cc1ccccc1` [N-benzylidene-o-toluidine], the inhibition in vivo at 4 mg/ear is 5.5%.

For the compound `Clc1ccc(N=Cc2ccccc2)cc1` [N-benzylidene-p-chloroaniline], the inhibition in vivo at 4 mg/ear was determined as 29.3%.

For the compound `CCc1ccc(N=Cc2ccccc2)cc1` [N-benzylidene-p-ethylaniline], the inhibition in vivo at 4 mg/ear was 30.5%.

`Cc1ccc(N=Cc2ccccc2)cc1` [N-benzylidene-p-toluidine]: the inhibition in vivo at 4 mg/ear is 45%.

With `C(=Nc1ccccc1)c1ccccc1` [N-benzylideneaniline, N-Benzylideneaniline], the inhibition in vivo at 4 mg/ear came out at 4.9%.

Values taken from patent US4198349A, “Benzylideneaniline derivatives” (William H. Rorer, Inc., priority 1978, dated 1980).
